Assay results published in ChEMBL document CHEMBL3991601, “The target landscape of clinical kinase drugs” (Science, 2017).
Active and inactive are the calls of the source.

How the values were obtained:
[1] = molecular target: Cell division cycle 7-related protein kinase (Homo sapiens, UniProt O00311)
Ephrin type-A receptor 1 = molecular target: T1, Ephrin type-A receptor 1 (Homo sapiens, UniProt P21709)
T1 sequence (P21709 whole entry): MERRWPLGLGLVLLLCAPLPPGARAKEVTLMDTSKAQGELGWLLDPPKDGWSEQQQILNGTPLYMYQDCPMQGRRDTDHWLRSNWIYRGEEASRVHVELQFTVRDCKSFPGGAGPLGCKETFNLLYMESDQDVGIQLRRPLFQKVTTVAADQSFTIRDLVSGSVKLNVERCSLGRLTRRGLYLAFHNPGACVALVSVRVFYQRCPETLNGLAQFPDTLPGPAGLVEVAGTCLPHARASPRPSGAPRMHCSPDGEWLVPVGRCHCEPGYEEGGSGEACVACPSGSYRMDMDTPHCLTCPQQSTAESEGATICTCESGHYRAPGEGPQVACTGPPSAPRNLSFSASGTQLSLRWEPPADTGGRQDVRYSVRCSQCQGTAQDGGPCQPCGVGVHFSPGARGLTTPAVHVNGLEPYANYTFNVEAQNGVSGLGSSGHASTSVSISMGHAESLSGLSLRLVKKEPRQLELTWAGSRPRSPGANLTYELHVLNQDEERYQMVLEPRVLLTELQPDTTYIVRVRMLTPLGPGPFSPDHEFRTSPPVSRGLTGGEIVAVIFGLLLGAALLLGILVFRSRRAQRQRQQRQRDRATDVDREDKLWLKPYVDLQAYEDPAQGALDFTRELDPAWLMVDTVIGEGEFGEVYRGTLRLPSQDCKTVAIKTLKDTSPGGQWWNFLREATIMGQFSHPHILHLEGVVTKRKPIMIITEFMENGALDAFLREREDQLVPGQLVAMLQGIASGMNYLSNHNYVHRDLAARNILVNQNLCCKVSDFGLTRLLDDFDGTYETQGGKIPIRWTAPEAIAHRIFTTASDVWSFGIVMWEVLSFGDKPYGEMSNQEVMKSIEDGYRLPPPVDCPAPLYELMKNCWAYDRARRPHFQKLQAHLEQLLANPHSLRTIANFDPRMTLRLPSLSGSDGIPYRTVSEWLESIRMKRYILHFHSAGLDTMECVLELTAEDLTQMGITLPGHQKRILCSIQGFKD

[2] = molecular target: MAP kinase-activated protein kinase 3 (Homo sapiens, UniProt Q16644)
[3] = molecular target: Serine/threonine-protein kinase N3 (Homo sapiens, UniProt Q6P5Z2)
[4] = molecular target: T2, Dual specificity protein kinase TTK (Homo sapiens, UniProt P33981)
T2 sequence (P33981 whole entry): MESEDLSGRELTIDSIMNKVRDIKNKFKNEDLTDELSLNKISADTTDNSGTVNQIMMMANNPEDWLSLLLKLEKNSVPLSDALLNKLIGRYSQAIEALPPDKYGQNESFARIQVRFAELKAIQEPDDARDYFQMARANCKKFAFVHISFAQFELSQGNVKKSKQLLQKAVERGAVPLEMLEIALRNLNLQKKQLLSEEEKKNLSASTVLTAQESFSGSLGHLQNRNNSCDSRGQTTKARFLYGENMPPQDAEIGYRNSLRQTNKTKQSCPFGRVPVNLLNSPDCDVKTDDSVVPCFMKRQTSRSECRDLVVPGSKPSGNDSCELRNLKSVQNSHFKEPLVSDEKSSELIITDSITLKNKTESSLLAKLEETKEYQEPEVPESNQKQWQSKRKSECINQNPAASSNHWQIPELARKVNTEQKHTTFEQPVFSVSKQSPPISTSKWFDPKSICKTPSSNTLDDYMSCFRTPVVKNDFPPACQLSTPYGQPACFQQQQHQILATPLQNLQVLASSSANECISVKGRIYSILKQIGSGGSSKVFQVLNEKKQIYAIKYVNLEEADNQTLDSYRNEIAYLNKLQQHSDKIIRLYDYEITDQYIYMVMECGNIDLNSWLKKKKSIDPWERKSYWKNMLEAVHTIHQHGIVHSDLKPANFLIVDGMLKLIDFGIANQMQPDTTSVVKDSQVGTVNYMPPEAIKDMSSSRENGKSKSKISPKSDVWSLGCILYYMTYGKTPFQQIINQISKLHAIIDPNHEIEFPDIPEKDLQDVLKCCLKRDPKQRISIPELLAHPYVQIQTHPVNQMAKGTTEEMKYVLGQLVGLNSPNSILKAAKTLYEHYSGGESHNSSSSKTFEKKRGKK

[5] = molecular target: T3, Receptor-type tyrosine-protein kinase FLT3 (Homo sapiens, UniProt P36888)
T3 sequence (P36888 whole entry): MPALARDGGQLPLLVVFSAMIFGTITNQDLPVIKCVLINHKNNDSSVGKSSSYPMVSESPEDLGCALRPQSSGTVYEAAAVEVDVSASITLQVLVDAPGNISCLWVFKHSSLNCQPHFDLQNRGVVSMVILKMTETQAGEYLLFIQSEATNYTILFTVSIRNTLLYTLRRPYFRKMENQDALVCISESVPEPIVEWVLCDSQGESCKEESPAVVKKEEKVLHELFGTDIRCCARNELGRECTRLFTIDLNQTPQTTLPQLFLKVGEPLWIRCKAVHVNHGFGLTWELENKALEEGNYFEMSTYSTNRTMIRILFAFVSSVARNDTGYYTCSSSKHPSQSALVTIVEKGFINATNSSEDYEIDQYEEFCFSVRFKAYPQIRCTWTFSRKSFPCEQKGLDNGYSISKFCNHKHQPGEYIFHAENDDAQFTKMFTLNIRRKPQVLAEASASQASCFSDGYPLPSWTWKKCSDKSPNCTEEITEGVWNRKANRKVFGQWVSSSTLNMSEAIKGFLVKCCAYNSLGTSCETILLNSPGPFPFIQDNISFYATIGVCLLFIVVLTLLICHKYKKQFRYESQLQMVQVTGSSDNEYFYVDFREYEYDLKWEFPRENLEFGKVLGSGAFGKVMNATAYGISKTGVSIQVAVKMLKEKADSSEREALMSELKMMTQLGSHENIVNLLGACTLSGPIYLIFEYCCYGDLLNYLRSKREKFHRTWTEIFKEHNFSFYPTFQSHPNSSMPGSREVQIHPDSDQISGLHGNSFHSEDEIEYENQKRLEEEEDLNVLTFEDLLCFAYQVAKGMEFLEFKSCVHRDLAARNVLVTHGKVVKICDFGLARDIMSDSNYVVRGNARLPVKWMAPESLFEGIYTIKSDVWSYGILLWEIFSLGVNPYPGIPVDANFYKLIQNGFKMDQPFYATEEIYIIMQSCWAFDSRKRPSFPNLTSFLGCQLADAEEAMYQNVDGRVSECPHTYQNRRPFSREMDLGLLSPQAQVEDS
Also: in the data inactive means no Kd found up to 30 µM.

Serine/threonine-protein kinase N3, sequence (Q6P5Z2 whole entry): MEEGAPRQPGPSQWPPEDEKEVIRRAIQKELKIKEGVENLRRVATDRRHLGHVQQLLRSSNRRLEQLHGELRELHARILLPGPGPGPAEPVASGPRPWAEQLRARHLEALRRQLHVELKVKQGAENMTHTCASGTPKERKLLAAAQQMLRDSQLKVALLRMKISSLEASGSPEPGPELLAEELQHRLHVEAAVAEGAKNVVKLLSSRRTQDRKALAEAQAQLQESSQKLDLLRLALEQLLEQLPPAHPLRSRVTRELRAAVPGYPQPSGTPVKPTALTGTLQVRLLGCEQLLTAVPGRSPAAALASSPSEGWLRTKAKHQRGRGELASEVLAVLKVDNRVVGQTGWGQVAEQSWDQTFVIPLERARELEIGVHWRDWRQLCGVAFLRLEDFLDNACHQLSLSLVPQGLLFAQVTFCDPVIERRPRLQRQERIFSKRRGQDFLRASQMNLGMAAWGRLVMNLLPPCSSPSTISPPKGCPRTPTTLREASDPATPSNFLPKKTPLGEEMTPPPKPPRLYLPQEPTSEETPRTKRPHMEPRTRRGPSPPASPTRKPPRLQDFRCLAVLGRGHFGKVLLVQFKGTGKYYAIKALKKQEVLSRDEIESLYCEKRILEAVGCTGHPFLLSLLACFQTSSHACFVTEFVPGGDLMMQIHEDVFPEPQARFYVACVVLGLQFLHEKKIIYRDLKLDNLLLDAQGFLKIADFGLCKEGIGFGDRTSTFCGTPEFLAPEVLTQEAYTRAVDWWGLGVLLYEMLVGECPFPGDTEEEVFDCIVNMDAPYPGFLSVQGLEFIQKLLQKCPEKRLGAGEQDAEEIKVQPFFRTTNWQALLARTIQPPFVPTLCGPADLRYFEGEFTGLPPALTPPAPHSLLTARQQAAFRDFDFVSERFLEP
Cell division cycle 7-related protein kinase, sequence (O00311 whole entry): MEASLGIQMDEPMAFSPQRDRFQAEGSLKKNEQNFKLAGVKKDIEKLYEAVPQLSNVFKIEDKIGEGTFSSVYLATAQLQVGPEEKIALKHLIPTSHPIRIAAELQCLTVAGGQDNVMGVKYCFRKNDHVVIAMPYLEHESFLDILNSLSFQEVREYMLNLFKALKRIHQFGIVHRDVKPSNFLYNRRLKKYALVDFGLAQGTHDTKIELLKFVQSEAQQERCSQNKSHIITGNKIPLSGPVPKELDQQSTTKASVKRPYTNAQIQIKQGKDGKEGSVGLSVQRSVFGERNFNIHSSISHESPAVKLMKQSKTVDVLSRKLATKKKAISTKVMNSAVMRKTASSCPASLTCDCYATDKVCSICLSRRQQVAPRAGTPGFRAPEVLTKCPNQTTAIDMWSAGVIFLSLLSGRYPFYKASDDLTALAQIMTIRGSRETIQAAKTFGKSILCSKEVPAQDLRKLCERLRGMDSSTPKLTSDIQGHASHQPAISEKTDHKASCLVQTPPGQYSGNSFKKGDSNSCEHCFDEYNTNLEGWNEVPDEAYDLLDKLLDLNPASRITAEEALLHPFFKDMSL
MAP kinase-activated protein kinase 3, sequence (Q16644 whole entry): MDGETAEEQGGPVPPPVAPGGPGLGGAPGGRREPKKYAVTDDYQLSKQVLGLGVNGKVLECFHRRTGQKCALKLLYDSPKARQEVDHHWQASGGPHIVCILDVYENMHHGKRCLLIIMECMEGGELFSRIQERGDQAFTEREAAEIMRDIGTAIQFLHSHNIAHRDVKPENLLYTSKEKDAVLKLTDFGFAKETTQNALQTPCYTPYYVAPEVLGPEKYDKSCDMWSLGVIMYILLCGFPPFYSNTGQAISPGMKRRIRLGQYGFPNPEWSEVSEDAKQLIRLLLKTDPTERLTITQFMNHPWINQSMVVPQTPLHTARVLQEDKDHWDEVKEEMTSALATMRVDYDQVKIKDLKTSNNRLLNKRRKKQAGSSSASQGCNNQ

Compound | Kd [1] | Kd (Ephrin type-A receptor 1) | Kd [2] | Kd [3] | Kd [4] | Kd [5]
CCN1CCN(Cc2ccc(Nc3ncc(F)c(-c4cc(F)c5nc(C)n(C(C)C)c5c4)n3)nc2)CC1 [ABEMACICLIB] | > 30 µM (inactive) | > 30 µM (inactive) | > 30 µM (inactive) | > 30 µM (inactive) | > 30 µM (inactive) | 
CCc1cc2c(cc1N1CCC(N3CCOCC3)CC1)C(C)(C)c1[nH]c3cc(C#N)ccc3c1C2=O [ALECTINIB] | > 30 µM (inactive) | 0.193 µM (active) | > 30 µM (inactive) | > 30 µM (inactive) | > 30 µM (inactive) | > 30 µM (inactive)
Cc1ccc(C(=O)Nc2ccc(Oc3cc4cnn(C)c4cc3-c3cn[nH]c3)c(F)c2)c(=O)n1-c1ccc(F)cc1 [MERESTINIB] | > 30 µM (inactive) | > 30 µM (inactive) | > 30 µM (inactive) | > 30 µM (inactive) | > 30 µM (inactive) | 0.309 µM (active)

Second part, the compound after the results:

Kd [1] | Kd (Ephrin type-A receptor 1) | Kd [2] | Kd [3] | Kd [4] | Kd [5] | Compound
> 30 µM (inactive) | > 30 µM (inactive) | > 30 µM (inactive) | > 30 µM (inactive) | > 30 µM (inactive) | > 30 µM (inactive) | C[C@@H]1COC(Nc2ccc3ncnc(Nc4ccc(OCc5nccs5)c(Cl)c4)c3c2)=N1 [VARLITINIB]
> 30 µM (inactive) | > 30 µM (inactive) | > 30 µM (inactive) | > 30 µM (inactive) | > 30 µM (inactive) | > 30 µM (inactive) | CNC(=O)c1cccc(-c2ccc3c(N4CCOC[C@@H]4C)nc(N4CCOC[C@@H]4C)nc3n2)c1 [VISTUSERTIB]
